Data reported in the Kinase Knowledgebase extract (Sharma et al. 2016).

Biological target: ROCK2 (human) (UniProt O75116)
Test: Inhibition of ROCK2 Kinase Activity

Sequence of ROCK2 (human) (O75116 whole entry, looked up): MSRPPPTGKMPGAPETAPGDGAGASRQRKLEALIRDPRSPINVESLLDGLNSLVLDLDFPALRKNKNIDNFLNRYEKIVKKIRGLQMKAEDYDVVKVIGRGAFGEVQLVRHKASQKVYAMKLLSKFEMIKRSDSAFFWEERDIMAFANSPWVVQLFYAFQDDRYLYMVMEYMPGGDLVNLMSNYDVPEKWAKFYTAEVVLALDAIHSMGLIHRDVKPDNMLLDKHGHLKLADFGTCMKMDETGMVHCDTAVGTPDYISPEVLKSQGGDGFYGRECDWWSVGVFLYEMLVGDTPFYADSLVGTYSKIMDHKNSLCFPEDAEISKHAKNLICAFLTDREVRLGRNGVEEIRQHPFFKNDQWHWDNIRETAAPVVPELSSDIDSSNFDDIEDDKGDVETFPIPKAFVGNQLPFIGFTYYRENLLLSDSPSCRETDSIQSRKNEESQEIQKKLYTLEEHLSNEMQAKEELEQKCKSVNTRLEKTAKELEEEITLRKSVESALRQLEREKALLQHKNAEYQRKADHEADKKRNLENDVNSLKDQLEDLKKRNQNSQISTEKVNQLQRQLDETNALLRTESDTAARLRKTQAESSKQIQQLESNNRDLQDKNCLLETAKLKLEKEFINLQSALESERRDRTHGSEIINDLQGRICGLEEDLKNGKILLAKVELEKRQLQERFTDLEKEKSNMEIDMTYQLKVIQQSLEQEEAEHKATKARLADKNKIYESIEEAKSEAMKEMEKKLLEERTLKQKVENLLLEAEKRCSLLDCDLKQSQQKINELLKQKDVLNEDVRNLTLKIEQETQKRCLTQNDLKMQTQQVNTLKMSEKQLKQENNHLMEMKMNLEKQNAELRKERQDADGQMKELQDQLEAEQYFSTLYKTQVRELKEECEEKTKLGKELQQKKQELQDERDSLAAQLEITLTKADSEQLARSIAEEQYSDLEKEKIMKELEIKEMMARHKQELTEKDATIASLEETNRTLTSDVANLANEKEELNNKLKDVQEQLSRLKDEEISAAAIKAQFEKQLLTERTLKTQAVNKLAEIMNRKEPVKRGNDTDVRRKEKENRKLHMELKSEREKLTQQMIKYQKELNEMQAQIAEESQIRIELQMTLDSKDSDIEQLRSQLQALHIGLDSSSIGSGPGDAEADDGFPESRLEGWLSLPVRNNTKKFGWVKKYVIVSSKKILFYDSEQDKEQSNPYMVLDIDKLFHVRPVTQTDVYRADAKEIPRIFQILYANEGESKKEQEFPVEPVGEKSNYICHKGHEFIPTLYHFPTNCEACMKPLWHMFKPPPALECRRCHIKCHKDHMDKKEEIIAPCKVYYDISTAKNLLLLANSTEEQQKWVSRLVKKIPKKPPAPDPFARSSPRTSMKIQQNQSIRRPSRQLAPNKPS

IC50 [nM] | SMILES
50 to 500 | CN(C)CCNC(=O)CC(N)c1ccc(C(=O)Nc2ccncc2)cc1 (stereo unspecified)
500 to 5000 | CCCC(=O)NCC(N)c1ccc(C(=O)Nc2ccncc2)cc1 (stereo unspecified)
50 to 500 | NC(CC(=O)NCc1ccc(F)cc1)c1ccc(C(=O)Nc2ccncc2)cc1 (stereo unspecified)
50 to 500 | N[C@H](CC(=O)NCc1ccc(F)cc1)c1ccc(C(=O)Nc2ccncc2)cc1
50 to 500 | NC(CC(=O)NCc1cccs1)c1ccc(C(=O)Nc2ccncc2)cc1 (stereo unspecified)
50 to 500 | CN(CC(N)c1ccc(C(=O)Nc2ccncc2)cc1)C(=O)Cc1ccc2ccccc2c1 (stereo unspecified)
500 to 5000 | NC(CNC(=O)NC1CCCC1)c1ccc(C(=O)Nc2ccncc2)cc1 (stereo unspecified)
< 50 | N[C@H](CC(=O)N[C@@H]1COc2ccccc21)c1ccc(C(=O)Nc2ccncc2)cc1
500 to 5000 | NC(CNC(=O)c1cccnc1)c1ccc(C(=O)Nc2ccncc2)cc1 (stereo unspecified)
500 to 5000 | COc1ccc(C(=O)NCC(N)c2ccc(C(=O)Nc3ccncc3)cc2)cc1 (stereo unspecified)
50 to 500 | COc1ccc(CC(=O)NCC(N)c2ccc(C(=O)Nc3ccncc3)cc2)cc1 (stereo unspecified)
500 to 5000 | COc1ccc(C2(C(=O)N3CCCC3C(N)c3ccc(C(=O)Nc4ccncc4)cc3)CCCC2)cc1 (stereo unspecified)
500 to 5000 | NC(CNC(=O)c1ccc(Oc2ccccc2)cc1)c1ccc(C(=O)Nc2ccncc2)cc1 (stereo unspecified)
500 to 5000 | NC(c1ccc(C(=O)Nc2ccncc2)cc1)C1CCCN1C(=O)Cc1cccc(Cl)c1 (stereo unspecified)
500 to 5000 | NC(CNC(=O)CSc1ncccn1)c1ccc(C(=O)Nc2ccncc2)cc1 (stereo unspecified)
500 to 5000 | NC(CNC(=O)c1cccc(Oc2ccccc2)c1)c1ccc(C(=O)Nc2ccncc2)cc1 (stereo unspecified)
500 to 5000 | NC(c1ccc(C(=O)Nc2ccncc2)cc1)C1CCCN1C(=O)C1(c2ccc(Cl)cc2F)CC1 (stereo unspecified)
50 to 500 | CC(C)(C(=O)NCC(N)c1ccc(C(=O)Nc2ccncc2)cc1)c1ccc(Cl)cc1F (stereo unspecified)
500 to 5000 | NC(c1ccc(C(=O)Nc2ccncc2)cc1)C1CCCN1C(=O)C1(c2ccc(Cl)cc2Cl)CC1 (stereo unspecified)
500 to 5000 | NC(c1ccc(C(=O)Nc2ccncc2)cc1)C1CCCN1C(=O)Cc1ccc(F)cc1Cl (stereo unspecified)
500 to 5000 | NC(c1ccc(C(=O)Nc2ccncc2)cc1)C1CCCN1C(=O)C1(c2ccc(Cl)cc2)CCC1 (stereo unspecified)
50 to 500 | COc1ccc(CC(=O)N2CCCC2C(N)c2ccc(C(=O)Nc3ccncc3)cc2)cc1 (stereo unspecified)
500 to 5000 | Cc1cccc(CC(=O)N2CCCC2C(N)c2ccc(C(=O)Nc3ccncc3)cc2)c1 (stereo unspecified)
500 to 5000 | NC(c1ccc(C(=O)Nc2ccncc2)cc1)C1CCCN1C(=O)Cc1cc(F)cc(F)c1 (stereo unspecified)
50 to 500 | Cc1ccc2[nH]cc(CCNC(=O)CC(N)c3ccc(C(=O)Nc4ccncc4)cc3)c2c1 (stereo unspecified)
500 to 5000 | NC(CC(=O)NCCc1cccc(F)c1)c1ccc(C(=O)Nc2ccncc2)cc1 (stereo unspecified)

IC50 [nM] | SMILES
50 to 500 | COc1cccc(OC)c1CNC(=O)CC(N)c1ccc(C(=O)Nc2ccncc2)cc1 (stereo unspecified)
50 to 500 | NC(c1ccc(C(=O)Nc2ccncc2)cc1)C1CCCN1C(=O)Cc1ccc(F)c(Cl)c1 (stereo unspecified)
50 to 500 | CC(=NOCC(=O)NCC(N)c1ccc(C(=O)Nc2ccncc2)cc1)c1ccccc1 (stereo unspecified)
500 to 5000 | CN(CC(N)c1ccc(C(=O)Nc2ccncc2)cc1)C(=O)Cc1cccc(Cl)c1 (stereo unspecified)
50 to 500 | NC(CNC(=O)Nc1ccc2ccccc2c1)c1ccc(C(=O)Nc2ccncc2)cc1 (stereo unspecified)
50 to 500 | CC[C@H](NC(=O)CC(N)c1ccc(C(=O)Nc2ccncc2)cc1)c1ccc(C)cc1 (stereo partly specified)
500 to 5000 | Cc1cccc(C(=O)NCC(N)c2ccc(C(=O)Nc3ccncc3)cc2)c1 (stereo unspecified)
500 to 5000 | NC(c1ccc(C(=O)Nc2ccncc2)cc1)C1CCCN1C(=O)C1(c2ccc(Cl)cc2)CCCC1 (stereo unspecified)
5000 to 50000 | CN(CC(N)c1ccc(C(=O)Nc2ccncc2)cc1)C(=O)C1CCSc2ccc(F)cc21 (stereo unspecified)
500 to 5000 | NC(CNC(=O)c1csc(Nc2ccc(F)cc2)n1)c1ccc(C(=O)Nc2ccncc2)cc1 (stereo unspecified)
500 to 5000 | CC(=O)NCC(N)c1ccc(C(=O)Nc2ccncc2)cc1 (stereo unspecified)
500 to 5000 | NC(CNC(=O)c1ccc(C(=O)c2ccccc2)cc1)c1ccc(C(=O)Nc2ccncc2)cc1 (stereo unspecified)
500 to 5000 | CN(CC(N)c1ccc(C(=O)Nc2ccncc2)cc1)C(=O)C(C)(C)c1ccc(Cl)cc1 (stereo unspecified)
500 to 5000 | CN(CC(N)c1ccc(C(=O)Nc2ccncc2)cc1)C(=O)Cc1cc(F)ccc1F (stereo unspecified)
50 to 500 | NC(CC(=O)NCC1CC1)c1ccc(C(=O)Nc2ccncc2)cc1 (stereo unspecified)
50 to 500 | CN(Cc1ccccc1)C(=O)CC(N)c1ccc(C(=O)Nc2ccncc2)cc1 (stereo unspecified)
500 to 5000 | NC(c1ccc(C(=O)Nc2ccncc2)cc1)C1CCCN1C(=O)C1CCc2cc(F)ccc21 (stereo unspecified)
500 to 5000 | CN(CC(N)c1ccc(C(=O)Nc2ccncc2)cc1)C(=O)Cc1ccc(F)cc1 (stereo unspecified)
500 to 5000 | CN(CC(N)c1ccc(C(=O)Nc2ccncc2)cc1)C(=O)Cc1ccc(Cl)cc1F (stereo unspecified)
50 to 500 | NC(CNC(=O)CCc1ccccc1)c1ccc(C(=O)Nc2ccncc2)cc1 (stereo unspecified)
50 to 500 | COc1ccc(OC)c(CCNC(=O)CC(N)c2ccc(C(=O)Nc3ccncc3)cc2)c1 (stereo unspecified)
50 to 500 | NC(CC(=O)N[C@H]1CCc2ccccc21)c1ccc(C(=O)Nc2ccncc2)cc1 (stereo partly specified)
500 to 5000 | COc1ccc2[nH]c(C(=O)NCC(N)c3ccc(C(=O)Nc4ccncc4)cc3)cc2c1 (stereo unspecified)
50 to 500 | CCC(Oc1ccccc1)C(=O)NCC(N)c1ccc(C(=O)Nc2ccncc2)cc1 (stereo unspecified)
500 to 5000 | NC(c1ccc(C(=O)Nc2ccncc2)cc1)C1CCCN1C(=O)Cc1ccc(F)cc1 (stereo unspecified)
50 to 500 | Cc1ccccc1CC(=O)NCC(N)c1ccc(C(=O)Nc2ccncc2)cc1 (stereo unspecified)

IC50 [nM] | SMILES
500 to 5000 | NC(CNC(=O)c1ccccc1-c1ccccc1)c1ccc(C(=O)Nc2ccncc2)cc1 (stereo unspecified)
500 to 5000 | NC(CNC(=S)Nc1ccc(OC(F)(F)F)cc1)c1ccc(C(=O)Nc2ccncc2)cc1 (stereo unspecified)
500 to 5000 | NC(CNC(=O)[C@@H]1CCC(=O)N1)c1ccc(C(=O)Nc2ccncc2)cc1 (stereo partly specified)
500 to 5000 | NC(CNC(=O)CC1CCCC1)c1ccc(C(=O)Nc2ccncc2)cc1 (stereo unspecified)
50 to 500 | CCNC(=O)CC(N)c1ccc(C(=O)Nc2ccncc2)cc1 (stereo unspecified)
500 to 5000 | NC(CNC(=O)c1ccc([N+](=O)[O-])o1)c1ccc(C(=O)Nc2ccncc2)cc1 (stereo unspecified)
50 to 500 | NC(CC(=O)NCc1ccccc1Cl)c1ccc(C(=O)Nc2ccncc2)cc1 (stereo unspecified)
50 to 500 | Cc1ccccc1NC(=O)NCC(N)c1ccc(C(=O)Nc2ccncc2)cc1 (stereo unspecified)
500 to 5000 | CC1=C(C(=O)NCC(N)c2ccc(C(=O)Nc3ccncc3)cc2)Cc2ccccc21 (stereo unspecified)
500 to 5000 | NC(c1ccc(C(=O)Nc2ccncc2)cc1)C1CCCN1C(=O)C(c1ccccc1)C1CCCCC1 (stereo unspecified)
500 to 5000 | CN(CC(N)c1ccc(C(=O)Nc2ccncc2)cc1)C(=O)C1(c2ccc(F)c(F)c2)CCC1 (stereo unspecified)
50 to 500 | N[C@@H](CC(=O)NC1COc2ccccc21)c1ccc(C(=O)Nc2ccncc2)cc1 (stereo partly specified)
50 to 500 | COc1cccc(CNC(=O)CC(N)c2ccc(C(=O)Nc3ccncc3)cc2)c1OC (stereo unspecified)
50 to 500 | Cc1ccc(CC(=O)NCC(N)c2ccc(C(=O)Nc3ccncc3)cc2)cc1 (stereo unspecified)
50 to 500 | NC(CC(=O)NCCc1ccc(F)cc1)c1ccc(C(=O)Nc2ccncc2)cc1 (stereo unspecified)
50 to 500 | NC(CC(=O)NCc1ccc2c(c1)OCO2)c1ccc(C(=O)Nc2ccncc2)cc1 (stereo unspecified)
50 to 500 | NC(c1ccc(C(=O)Nc2ccncc2)cc1)C1CCCN1C(=O)Cc1ccc(F)cc1F (stereo unspecified)
< 50 | N[C@H](CC(=O)N[C@@H]1CCCc2ccccc21)c1ccc(C(=O)Nc2ccncc2)cc1
50 to 500 | Cc1cccc(CN2CCC(NC(=O)CC(N)c3ccc(C(=O)Nc4ccncc4)cc3)CC2)c1 (stereo unspecified)
50 to 500 | Cc1cc(Cl)cc(Cl)c1CNC(=O)CC(N)c1ccc(C(=O)Nc2ccncc2)cc1 (stereo unspecified)
500 to 5000 | CC(C)(C)c1ccc(NC(=S)NCC(N)c2ccc(C(=O)Nc3ccncc3)cc2)cc1 (stereo unspecified)
500 to 5000 | Cc1ccc(CC(=O)N(C)CC(N)c2ccc(C(=O)Nc3ccncc3)cc2)cc1 (stereo unspecified)
50 to 500 | CONC(=O)CC(N)c1ccc(C(=O)Nc2ccncc2)cc1 (stereo unspecified)
50 to 500 | NC(CC(=O)NCc1ccc(Cl)cc1Cl)c1ccc(C(=O)Nc2ccncc2)cc1 (stereo unspecified)
50 to 500 | COc1ccc(C(NC(=O)CC(N)c2ccc(C(=O)Nc3ccncc3)cc2)c2ccc(OC)cc2)cc1 (stereo unspecified)
50 to 500 | NC(CNC(=O)C1(c2ccc(F)c(F)c2)CC1)c1ccc(C(=O)Nc2ccncc2)cc1 (stereo unspecified)

IC50 [nM] | SMILES
500 to 5000 | NC(c1ccc(C(=O)Nc2ccncc2)cc1)C1CCCN1C(=O)C1(c2ccc(F)cc2)CCC1 (stereo unspecified)
500 to 5000 | NC(CNC(=O)CC1CC1)c1ccc(C(=O)Nc2ccncc2)cc1 (stereo unspecified)
50 to 500 | CCCCC(C)CCC(=O)NCC(N)c1ccc(C(=O)Nc2ccncc2)cc1 (stereo unspecified)
50 to 500 | COc1ccc(CNC(=O)CC(N)c2ccc(C(=O)Nc3ccncc3)cc2)cc1 (stereo unspecified)
50 to 500 | COc1ccccc1CNC(=O)CC(N)c1ccc(C(=O)Nc2ccncc2)cc1 (stereo unspecified)
50 to 500 | NC(CNC(=O)[C@H]1CCC(=O)N1)c1ccc(C(=O)Nc2ccncc2)cc1 (stereo partly specified)
500 to 5000 | NC(c1ccc(C(=O)Nc2ccncc2)cc1)C1CCCN1C(=O)C1CCOc2ccc(F)cc21 (stereo unspecified)
500 to 5000 | CN(CC(N)c1ccc(C(=O)Nc2ccncc2)cc1)C(=O)C1(c2ccc(F)cc2)CCCC1 (stereo unspecified)
50 to 500 | NC(CC(=O)NCc1ccncc1)c1ccc(C(=O)Nc2ccncc2)cc1 (stereo unspecified)
50 to 500 | NC(c1ccc(C(=O)Nc2ccncc2)cc1)C1CCCN1C(=O)Cc1ccccc1 (stereo unspecified)
500 to 5000 | CN(CC(N)c1ccc(C(=O)Nc2ccncc2)cc1)C(=O)C1(c2ccc(Cl)cc2F)CC1 (stereo unspecified)
50 to 500 | NC(CNC(=O)c1ccc2ccccc2n1)c1ccc(C(=O)Nc2ccncc2)cc1 (stereo unspecified)
500 to 5000 | NC(CNC(=O)C1CCCO1)c1ccc(C(=O)Nc2ccncc2)cc1 (stereo unspecified)
500 to 5000 | Cc1ccccc1C(=O)NCC(N)c1ccc(C(=O)Nc2ccncc2)cc1 (stereo unspecified)
500 to 5000 | NC(c1ccc(C(=O)Nc2ccncc2)cc1)C1CCCN1C(=O)C1(c2ccc(F)cc2F)CC1 (stereo unspecified)
500 to 5000 | CN(CC(N)c1ccc(C(=O)Nc2ccncc2)cc1)C(=O)C(C)(C)c1ccc(F)c(Cl)c1 (stereo unspecified)
50 to 500 | NC(CNC(=O)C1(c2ccc(F)c(F)c2)CCCC1)c1ccc(C(=O)Nc2ccncc2)cc1 (stereo unspecified)
50 to 500 | NC(CNC(=O)C1(c2cccs2)CC1)c1ccc(C(=O)Nc2ccncc2)cc1 (stereo unspecified)
50 to 500 | NC(CNC(=O)C1(c2ccc(F)cc2Cl)CC1)c1ccc(C(=O)Nc2ccncc2)cc1 (stereo unspecified)
50 to 500 | NC(CC(=O)NC1Cc2ccccc2C1)c1ccc(C(=O)Nc2ccncc2)cc1 (stereo unspecified)
50 to 500 | NC(CNC(=O)CC1Cc2ccccc2C1)c1ccc(C(=O)Nc2ccncc2)cc1 (stereo unspecified)
50 to 500 | NC(CNC(=O)Nc1ccc(F)cc1)c1ccc(C(=O)Nc2ccncc2)cc1 (stereo unspecified)
500 to 5000 | Cc1ccccc1CC(=O)N(C)CC(N)c1ccc(C(=O)Nc2ccncc2)cc1 (stereo unspecified)
